Experimental data as given in patent US8802704B2, “Oxadiazole derivatives” (Merck Serono SA, priority 2009, dated 2014).
Like-named read-outs stand apart in the source and are kept apart here.

Legend:
S1P3 = S1P3 (Homo sapiens, UniProt Q99500); experiment: Receptor binding assay, [33P]sphingosine 1-phosphate competition (SPA), S1P3
Description: Membranes were prepared from CHO cells expressing S1P1 or S1P3 for use in ligand and […] binding studies. Cells were suspended in 50 mM TRIS, pH 7.4, 2 mM EDTA, 250 mM Sucrose (buffer A) and 1× Complete protease inhibitor cocktail (Roche), and disrupted at 4° C. by N2 decompression using a cell disruption bomb (Parr Instrument). Following centrifugation at 1000 RPM for 10 min at 4° C., the supernatant was diluted (2×) in buffer A and centrifuged again at 19000 RPM for 75 min at 4° C. The pellet was then suspended in 10 mM HEPES, pH 7.4, 1 mM EDTA, 250 mM Sucrose (Buffer B), and 1× Complete EDTA-free protease inhibitor cocktail and homogenized using a potter. Membranes were flash frozen in liquid N2 and stored at −80° C.
[33P]sphingosine 1-phosphate (3000 Ci/mmol; American Radiolabeled Chemicals, Inc.) was added to test compounds in 20% DMSO by competition. Membranes and WGA SPA beads (GE Healthcare) were added to give a final volume of 100 μl in 96-well plates or 50 μl in 384-well plates with assay concentrations of 30 pM or 15 pM [33P]sphingosine 1-phosphate (respectively for S1P1 or S1P3), 50 mM HEPES, pH 7.5, 5 mM MgCl2, 100 mM NaCl, 0.4% fatty acid-free BSA, 1-5 μg/well of proteins in 96-well plates vs 0.6-1 μg/well of proteins in 384-well plates and 100 μg/well of WGA SPA beads in 96-well plates vs 75 μg/well of WGA SPA beads in 384-well plates. Binding was performed for 60 min at RT on a shaker and bound radioactivity was measured on a PerkinElmer 1450 MicroBeta counter. Triplicate samples were averaged and normalized as percentage of inhibition relative to total binding (only DMSO in well) and non-specific binding (1000-fold excess of unlabeled S1P). Binding data were analyzed using the GraphPad Prism program or Genedata software.

S1P1 [1] = target: T1, S1P1 (Homo sapiens, UniProt P21453); experiment: S1P1 internalization assay in S1P1-U2OS cells (cell imaging); assay type: cell-based; settings: U2OS cells expressing S1P1-EGFP, 1 hour
Description: Cellular functional assays: Internalization of Sphingosine-1-phosphate receptor 1 (S1P1) in a human Cell line (U2OS) in a 384-well format using a Cell Imaging analysis.
The S1P1 internalization assay was performed in 384 well plates (Corning® 384 black with clear bottom 3712) using S1P1-U2OS cells from Biolmage (C039A), a human epithelial cell line (Human Bone Osteosarcoma Epithelial Cells). These cells expressed the human S1P1 Receptor fused to the green fluorescent protein (EGFP). A standard CMV promoter (cytomegalovirus promoter) controls the expression of S1P1-EGFP and continuous expression was maintained by addition of geneticin to the culture medium.
S1P1Receptor desensitization induced the internalization of the membrane-localized S1P1-EGFP fusion protein to endosomes, which can be monitored by cell imaging analysis. The cells are plated in low serum medium (Dulbecco's Modified Eagle Medium (DMEM) with Glutamax-1 and high glucose, 1% Penicillin/Streptomycin, 1% Fetal Calf Serum (FCS), 0.5 mg/ml Geneticin) overnight.
The next day, S1P1-U2OS cells are incubated in 20 μl serum free medium (DMEM with Glutamax-1 and high glucose, 0.1% of fatty-acid free Bovin Serum Albumin (BSA), 10 mM, N′-2-Hydroxyethylpiperazine-N′-2 ethanesulphonic acid (HEPES) 1M) for 2 hours at 37° C./5% CO2. The cells are then treated with 4 μl compounds/agonists (6×/3% DMSO) for a total volume of 24 μl, and plates are incubated for 1 hour at 37° C./5% CO2.
S1P1-U2OS cells are fixed with 25 μl Paraformaldehyde 8% and stained with Hoechst 33345 dye (1:1000) for 20 minutes.
They were then washed 3 times with Phosphate Buffered Saline (PBS) and plates are sealed. The internalization of the receptor S1P1-EGFP is measured on Cellomics by calculating the “spot count per object” (“object” corresponds to nuclear and “spot” corresponds to S1P1-EGFP receptor). Internalization data were observed thanks to vHCS View and analyzed using Genedata® software.
Target sequence in this assay (P21453 whole entry): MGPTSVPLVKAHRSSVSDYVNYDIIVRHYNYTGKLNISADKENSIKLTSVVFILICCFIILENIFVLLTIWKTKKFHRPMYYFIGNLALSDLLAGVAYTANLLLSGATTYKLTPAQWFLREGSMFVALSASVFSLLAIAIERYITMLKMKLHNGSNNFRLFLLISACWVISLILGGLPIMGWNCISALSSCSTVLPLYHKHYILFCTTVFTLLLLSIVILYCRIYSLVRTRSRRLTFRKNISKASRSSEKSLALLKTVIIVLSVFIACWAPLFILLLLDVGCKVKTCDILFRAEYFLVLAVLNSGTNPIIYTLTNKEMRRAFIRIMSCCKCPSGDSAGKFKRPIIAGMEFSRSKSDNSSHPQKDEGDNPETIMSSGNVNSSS

S1P1 [2] = target: T1, S1P1; experiment: Receptor binding assay, [33P]sphingosine 1-phosphate competition (SPA), S1P1
Description: Cells were suspended in 50 mM TRIS, pH 7.4, 2 mM EDTA, 250 mM Sucrose (buffer A) and 1× Complete protease inhibitor cocktail (Roche), and disrupted at 4° C. by N2 decompression using a cell disruption bomb (Parr Instrument). […] The pellet was then suspended in 10 mM HEPES, pH 7.4, 1 mM EDTA, 250 mM Sucrose (Buffer B), and 1× Complete EDTA-free protease inhibitor cocktail and homogenized using a potter. Membranes were flash frozen in liquid N2 and stored at −80° C.
[33P]sphingosine 1-phosphate (3000 Ci/mmol; American Radiolabeled Chemicals, Inc.) was added to test compounds in 20% DMSO by competition. […] Triplicate samples were averaged and normalized as percentage of inhibition relative to total binding (only DMSO in well) and non-specific binding (1000-fold excess of unlabeled S1P). Binding data were analyzed using the GraphPad Prism program or Genedata software.
Target sequence in this assay (P21453 whole entry, species assumed): as the sequence (P21453 whole entry) above

[3] = 384 well-plate, read-out: S1P3 binding Ki (M) (384 well-plate)
[4] = 384 well-plate, read-out: S1P1 binding Ki (M) (384 well-plate)
[5] = 96 well-plate, read-out: S1P3 binding Ki (M) (96 well-plate)
[6] = 96 well-plate, read-out: S1P1 binding Ki (M) (96 well-plate)

Sequence of S1P3 (Q99500 whole entry, species assumed): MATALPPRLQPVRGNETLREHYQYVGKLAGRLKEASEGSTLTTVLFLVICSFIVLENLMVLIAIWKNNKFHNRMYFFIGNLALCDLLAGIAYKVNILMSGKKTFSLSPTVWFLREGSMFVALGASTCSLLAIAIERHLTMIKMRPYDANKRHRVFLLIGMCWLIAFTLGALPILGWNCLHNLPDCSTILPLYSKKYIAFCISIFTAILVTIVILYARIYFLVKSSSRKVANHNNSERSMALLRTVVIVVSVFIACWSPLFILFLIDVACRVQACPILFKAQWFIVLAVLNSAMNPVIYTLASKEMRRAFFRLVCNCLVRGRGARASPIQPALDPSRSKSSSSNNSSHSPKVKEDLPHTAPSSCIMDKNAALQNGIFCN

| SMILES | Ki (S1P3; [3]) [M] | EC50 (S1P1 [1]) [nM] | Ki (S1P1 [2]; [4]) [M] | Ki (S1P3; [5]) [M] | Ki (S1P1 [2]; [6]) [M] |
| --- | --- | --- | --- | --- | --- |
| Cc1ccccc1-c1ccc(-c2nc(-c3cc(F)c(CN(C)CC(=O)O)c(F)c3)no2)cc1C(F)(F)F [Example 148, 2-((2,6-difluoro-4-(5-(2′-methyl-2-(trifluoromethyl)biphenyl-4-yl)-1,2,4-oxadiazol-3-yl)benzyl)(methyl)amino)acetic acid] | 8.34e-07 | 24.7 | 2.38e-09 |  |  |
| Cc1cc(CN(C)CC(=O)O)ccc1-c1noc(-c2ccc(-c3ccccc3C)c(C(F)(F)F)c2)n1 [Example 103, 2-(methyl(3-methyl-4-(5-(2′-methyl-2-(trifluoromethyl)biphenyl-4-yl)-1,2,4-oxadiazol-3-yl)benzyl)amino)acetic acid] | 4.68e-07 | 17.7 | 1.45e-09 | 4.12e-07 |  |
| Cc1cc(-c2nc(-c3ccc(CN(C)CC(=O)O)cc3Cl)no2)ccc1-c1ccccc1C(F)(F)F [Example 153, 2-((3-chloro-4-(5-(2-methyl-2′-(trifluoromethyl)biphenyl-4-yl)-1,2,4-oxadiazol-3-yl)benzyl)(methyl)amino)acetic acid] | 7.5e-06 | 50.9 | 3.32e-09 |  |  |
| Cc1cc(-c2nc(-c3ccc(CN(C)CC(=O)O)c(F)c3F)no2)ccc1-c1ccccc1C(F)(F)F [Example 152, 2-((2,3-difluoro-4-(5-(2-methyl-2′-(trifluoromethyl)biphenyl-4-yl)-1,2,4-oxadiazol-3-yl)benzyl)(methyl)amino)acetic acid] | 1.25e-05 | 68.4 | 3.71e-09 |  |  |
| COCc1cc(-c2nc(-c3cccc(CN(C)CC(=O)O)c3)no2)ccc1-c1ccc(F)cc1C(F)(F)F [Example 50, N-(3-{5-[4′-fluoro-2-(methoxymethyl)-2′-(trifluoromethyl)biphenyl-4-yl]-1,2,4-oxadiazol-3-yl}benzyl)-N-methylglycine] | 1.18e-06 | 25.3 | 1.24e-08 | 7.71e-07 | 8.49e-10 |
| CN(CC(=O)O)Cc1ccc(-c2noc(-c3ccc(-c4ccccc4C(F)(F)F)c(Cl)c3)n2)cc1F [Example 134, N-(4-{5-[2-chloro-2′-(trifluoromethyl)biphenyl-4-yl]-1,2,4-oxadiazol-3-yl}-2-fluorobenzyl)-N-methylglycine] | 1.8e-05 | 37.3 | 4.07e-09 |  |  |
| COCc1cc(-c2nc(-c3ccc(CN(C)CC(=O)O)c(C(F)(F)F)c3)no2)ccc1-c1ccccc1C [Example 105] | 1.88e-06 | 74.9 | 3.3e-09 | 1.83e-06 |  |
| Cc1cc(-c2nc(-c3ccc(CN(C)CC(=O)O)c(F)c3)no2)ccc1-c1ccccc1C(F)(F)F [Example 123, N-(2-fluoro-4-{5-[2-methyl-2′-(trifluoromethyl)biphenyl-4-yl]-1,2,4-oxadiazol-3-yl}benzyl)-N-methylglycine] | 6.9e-06 | 30.4 | 3.46e-09 |  |  |

The remaining lines, values ahead:

| Ki (S1P3; [3]) [M] | EC50 (S1P1 [1]) [nM] | Ki (S1P1 [2]; [4]) [M] | Ki (S1P3; [5]) [M] | Ki (S1P1 [2]; [6]) [M] | SMILES |
| --- | --- | --- | --- | --- | --- |
| 2.85e-07 | 9.44 | 2.22e-09 |  |  | Cc1ccccc1-c1ccc(-c2nc(-c3ccc(CN(C)CC(=O)O)cc3Cl)no2)cc1C(F)(F)F [Example 145, 2-((4-(5-(2-(trifluoromethyl)-2′-methylbiphenyl-4-yl)-1,2,4-oxadiazol-3-yl)-3-chlorobenzyl)(methyl)amino)acetic acid] |
| 2.22e-06 | 12 | 2.08e-09 | 1.57e-06 |  | COCc1cc(-c2nc(-c3ccc(CN(C)CC(=O)O)cc3)no2)ccc1-c1ccccc1C(F)(F)F [Example 97, N-(4-{5-[2-(methoxymethyl)-2′-(trifluoromethyl)biphenyl-4-yl]-1,2,4-oxadiazol-3-yl}benzyl)-N-methylglycine] |
|  | 11.9 |  | 3.69e-08 | 2.31e-10 | CN(CC(=O)O)Cc1cc(F)cc(-c2noc(-c3ccc(-c4ccccc4)c(C(F)(F)F)c3)n2)c1 [Example 67] |
| 2.93e-07 | 11.9 | 1.5e-09 |  |  | CCc1ccccc1-c1ccc(-c2nc(-c3ccc(CN(C)CC(=O)O)cc3)no2)cc1C(F)(F)F [Example 109, N-(4-{5-[2′-ethyl-2-(trifluoromethyl)biphenyl-4-yl]-1,2,4-oxadiazol-3-yl}benzyl)-N-methylglycine] |
| 2.21e-06 | 9.03 | 2.15e-09 | 6.68e-07 |  | CCOc1cc(-c2nc(-c3ccc(CN(C)CC(=O)O)cc3)no2)ccc1-c1ccccc1C(F)(F)F [Example 115, N-(4-{5-[2-ethoxy-2′-(trifluoromethyl)biphenyl-4-yl]-1,2,4-oxadiazol-3-yl}benzyl)-N-methylglycine] |
| 5.69e-07 | 6.53 | 1.19e-09 | 6.29e-07 | 3.49e-10 | CN(CC(=O)O)Cc1ccc(-c2noc(-c3ccc(-c4ccccc4F)c(C(F)(F)F)c3)n2)cc1 [Example 89, N-(4-{5-[2′-fluoro-2-(trifluoromethyl)biphenyl-4-yl]-1,2,4-oxadiazol-3-yl}benzyl)-N-methylglycine] |
| 1.41e-06 | 11.3 | 2.35e-09 | 1.5e-06 | 8.7e-10 | COCc1cc(-c2nc(-c3cccc(CN(C)CC(=O)O)c3)no2)ccc1-c1ccccc1C(F)(F)F [Example 49, N-(3-{5-[2-(methoxymethyl)-2′-(trifluoromethyl)biphenyl-4-yl]-1,2,4-oxadiazol-3-yl}benzyl)-N-methylglycine] |
|  | 11.2 |  | 1.09e-07 | 3.57e-10 | CN(CC(=O)O)Cc1cccc(-c2noc(-c3ccc(-c4ccccc4)c(C(F)(F)F)c3)n2)c1 [Example 68] |
|  | 8.11 |  | 3.68e-08 | 2.96e-10 | Cc1ccccc1-c1ccc(-c2nc(-c3cc(F)cc(CN(C)CC(=O)O)c3)no2)cc1C(F)(F)F [Example 64, N-(3-fluoro-5-{5-[2′-methyl-2-(trifluoromethyl)biphenyl-4-yl]-1,2,4-oxadiazol-3-yl}benzyl)-N-methylglycine] |
|  | 8.97 | 1.47e-09 | 4.67e-08 | 2.21e-10 | CCN(CCC(=O)O)Cc1cccc(-c2noc(-c3ccc(-c4ccccc4C)c(C(F)(F)F)c3)n2)c1 [Example 69, N-ethyl-N-(3-{5-[2′-methyl-2-(trifluoromethyl)biphenyl-4-yl]-1,2,4-oxadiazol-3-yl}benzyl)-beta-alanine] |
| 1.07e-06 | 17.3 | 3.16e-09 |  |  | Cc1cc(-c2noc(-c3ccc(-c4ccccc4C)c(C(F)(F)F)c3)n2)ccc1CN(C)CC(=O)O [Example 154, 2-(methyl(2-methyl-4-(5-(2′-methyl-2-(trifluoromethyl)biphenyl-4-yl)-1,2,4-oxadiazol-3-yl)benzyl)amino)acetic acid] |
